Results: PMC11842588, “A first-in-class selective inhibitor of ERK1/2 and ERK5 overcomes drug resistance with a single-molecule strategy” (Signal Transduction and Targeted Therapy, 2025)

Experiments:
[1] = tested on: MDA-MB-231 cells; assay: MTT cell viability assay; type: cell-based; conditions: 10 μM
Protocol: (§1) MDA-MB-468 and MDA-MB-436 cells were cultured in Leibovitz’s L-15 medium supplemented with 10% fetal bovine serum. […] All of the cells were cultured at 37 °C in a humidified atmosphere containing 5% CO2.
(§2) Cancer cells were seeded in a density in 96-well plates (2 × 10^3 cells per well). After incubation for 24 h, cancer cells were treated with compounds (0–20 μM) for 72 h.

[2] = tested on: MDA-MB-468 cells; assay: MTT cell viability assay; type: cell-based; conditions: 10 μM
Protocol: as §1, §2

[3] = molecular target: ERK5 (Homo sapiens, UniProt Q13164); assay: ADP-Glo kinase assay; type: biochemical
Protocol: (§3) The full-length human ERK1 or ERK2 with His-tag was cloned into a pET28a vector. hERK1/2 were expressed in Escherichia coli BL21(DE3), and then were purified using sequential Ni-NTA and Superdex 200 column steps. The SEC purified sample was then concentrated to 10 mg/ml and stored at −80 °C with buffer containing 20 mM HEPES pH 7.5, 150 mM NaCl. ERK5 (residues 48–395) containing His and GST tags was cloned into the pFastBac vector, and the recombinant plasmid was extracted. The recombinant plasmid was transformed into the DH10bac strain, and monoclonal was selected for culture. The recombinant Bacmid was then extracted according to the instructions of the Baculovirus Shuttle Vector Bacmid Mini Preparation Kit (Beyotime) and validated by PCR. 1 × 10^6/well Sf9 cells were counted for transfection and then amplified to obtain P3 ERK5 recombinant baculovirus. It was added to 2 × 10^6/mL Sf9 cells and incubated at 27 °C for 72 h on a shaker to express ERK5. Cells were lysed and supernatant was collected on a Ni-NTA for purification, and a 250 mM imidazole eluate was collected. Next, digestion by TEV protease was performed overnight while dialysis was performed in approximately 1000 mL of imidazole-free buffer. The digested ERK5 protein was sequentially purified on the Ni-NTA and GST-tag Purification Resin, followed by size exclusion chromatography on a Superdex 75 column. ERK5 protein was collected and concentrated to 12 mg/ml and stored at −80 °C in buffer containing 50 mM HEPES pH 8.0, 200 mM NaCl, 10% (v/v) glycerol.
(§4) ERK1/2/5 kinase activity assay was conducted using ADP-Glo™ Kinase Assay. 2× ATP solution and 2× kinase & Metal solution were prepared using assay buffer were prepared using assay buffer containing 50 mM Hepes pH 7.5, 10 mM MgCl2; 0.01% Brij35, 1 mM EGTA, 2 mM DTT. Transfer 40 nL compounds to 384 assay plate. Add 2 μL of 2× kinase & Metal solution were mixed and incubated in a 384-assay plate for 10 min at 25 °C. 2 μL of 2×ATP solution was added and incubated at 25 °C for 60 min. And then, each well was supplemented with 4 µL of ADP-Glo^TM reagent and incubated at 25 °C for 40 min. Subsequently, 8 µL of Kinase Detection Reagent was added and incubated at 25 °C for 40 min. Finally, the luminescence signals were recorded. The IC50 values were calculated using GraphPad Prism 9.5 software.

[4] = molecular target: ERK2 (Homo sapiens, UniProt P28482); assay: ADP-Glo kinase assay; type: biochemical
Protocol: as §3, §4

[5] = molecular target: ERK1 (Homo sapiens, UniProt P27361); assay: ADP-Glo kinase assay; type: biochemical
Protocol: as §3, §4

Sequence of ERK1 (P27361 whole entry): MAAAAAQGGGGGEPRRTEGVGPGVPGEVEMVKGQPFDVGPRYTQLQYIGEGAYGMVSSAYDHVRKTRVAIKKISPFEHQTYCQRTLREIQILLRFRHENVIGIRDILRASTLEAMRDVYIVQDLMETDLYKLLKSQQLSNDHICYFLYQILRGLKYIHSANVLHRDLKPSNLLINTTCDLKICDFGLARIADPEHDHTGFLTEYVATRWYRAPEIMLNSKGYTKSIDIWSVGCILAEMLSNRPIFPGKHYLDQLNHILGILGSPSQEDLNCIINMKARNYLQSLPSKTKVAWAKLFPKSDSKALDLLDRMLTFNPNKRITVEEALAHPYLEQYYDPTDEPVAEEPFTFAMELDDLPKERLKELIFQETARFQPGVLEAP
Sequence of ERK5 (Q13164 whole entry, the tested form may be a part): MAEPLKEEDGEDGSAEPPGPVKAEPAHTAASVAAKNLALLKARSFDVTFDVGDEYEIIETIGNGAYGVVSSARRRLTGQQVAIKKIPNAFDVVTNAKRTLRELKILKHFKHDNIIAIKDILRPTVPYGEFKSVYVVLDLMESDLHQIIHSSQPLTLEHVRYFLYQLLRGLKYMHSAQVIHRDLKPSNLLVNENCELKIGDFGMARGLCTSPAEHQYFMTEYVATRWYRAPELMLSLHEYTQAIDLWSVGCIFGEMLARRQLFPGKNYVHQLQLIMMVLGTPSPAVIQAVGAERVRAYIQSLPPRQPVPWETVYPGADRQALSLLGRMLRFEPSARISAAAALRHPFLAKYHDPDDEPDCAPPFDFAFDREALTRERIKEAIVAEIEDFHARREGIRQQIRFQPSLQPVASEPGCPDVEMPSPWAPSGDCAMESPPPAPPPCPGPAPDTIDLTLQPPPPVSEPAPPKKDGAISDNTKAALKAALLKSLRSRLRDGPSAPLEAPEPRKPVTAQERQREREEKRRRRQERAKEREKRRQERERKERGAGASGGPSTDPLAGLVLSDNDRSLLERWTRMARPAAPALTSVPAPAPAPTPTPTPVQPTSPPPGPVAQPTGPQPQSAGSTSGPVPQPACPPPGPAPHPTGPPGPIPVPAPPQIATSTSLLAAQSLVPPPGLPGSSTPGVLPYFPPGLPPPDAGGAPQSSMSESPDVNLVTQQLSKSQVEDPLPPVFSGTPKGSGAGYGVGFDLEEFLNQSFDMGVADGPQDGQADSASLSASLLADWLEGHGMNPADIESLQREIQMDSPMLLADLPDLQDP
Sequence of ERK2 (P28482 whole entry): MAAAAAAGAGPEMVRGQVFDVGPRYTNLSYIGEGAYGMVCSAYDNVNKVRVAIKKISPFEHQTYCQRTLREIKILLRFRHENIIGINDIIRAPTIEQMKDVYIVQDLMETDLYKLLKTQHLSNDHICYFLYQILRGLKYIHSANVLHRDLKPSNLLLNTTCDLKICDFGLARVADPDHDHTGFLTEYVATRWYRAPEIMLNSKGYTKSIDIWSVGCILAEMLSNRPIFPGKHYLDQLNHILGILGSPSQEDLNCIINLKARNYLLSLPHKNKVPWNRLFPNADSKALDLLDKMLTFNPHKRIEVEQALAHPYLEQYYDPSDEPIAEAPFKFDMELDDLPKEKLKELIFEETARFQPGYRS

Row | Enzyme inhibitory activity (500 nM, %) ERK5 [3] [%] | Enzyme inhibitory activity (500 nM, %) ERK2 [4] [%] | Enzyme inhibitory activity (500 nM, %) ERK1 [5] [%] | inhibition at 0.5 µM ([3]; read-out: Enzyme inhibitory activity (500 nM, %) ERK5) [%] | inhibition at 0.5 µM ([4]; read-out: Enzyme inhibitory activity (500 nM, %) ERK2) [%] | inhibition at 0.5 µM ([5]; read-out: Enzyme inhibitory activity (500 nM, %) ERK1) [%] | SMILES | Anti-proliferative activity (10 μM, %) MDA-MB-231 [1] [%] | Anti-proliferative activity (10 μM, %) MDA-MB-468 [2] [%]
1 | 86.64 ± 0.89 | 43.61 ± 1.45 | 45.23 ± 2.12 |  |  |  | CN(C)Cc1cccc(Nc2ncc(Cl)c(-c3csc(C(=O)Nc4ccnn4C)c3)n2)c1 [18k] | 39.77 ± 0.31 | -3.93 ± 1.21
2 |  |  |  |  |  |  | Cn1nccc1Nc1ncc(Cl)c(-c2csc(C(=O)Nc3ccccc3)c2)n1 [6i] | 5.65 ± 0.22 | -12.07 ± 2.31
3 | 35.45 ± 1.32 | 53.43 ± 0.43 | 50.98 ± 3.23 |  |  |  | Cn1nccc1Nc1ncc(Cl)c(-c2csc(C(=O)Nc3cccc(C(F)(F)F)c3)c2)n1 [6m] | 34.62 ± 1.24 | 30.41 ± 0.68
4 |  |  |  |  |  |  | Cn1nccc1Nc1ncc(Cl)c(-c2csc(C(=O)Nc3cccc(F)c3)c2)n1 [6j] | 25.73 ± 0.57 | 10.11 ± 0.76
5 | 34.57 ± 1.42 | 91.52 ± 0.31 | 93.12 ± 1.89 |  |  |  | Cn1nccc1Nc1ncc(Cl)c(-c2csc(C(=O)NC3CCSCC3)c2)n1 [6d] | 37.21 ± 0.72 | 23.35 ± 2.34
6 |  |  |  |  |  |  | Cn1nccc1Nc1ncc(Cl)c(-c2csc(C(=O)NCc3cnccn3)c2)n1 [6h] | 23.65 ± 1.27 | 7.43 ± 3.45
7 | 21.12 ± 2.34 | 45.57 ± 0.34 | 41.09 ± 1.05 |  |  |  | COc1ccc(NC(=O)c2cc(-c3nc(Nc4ccn(C)n4)ncc3Cl)cs2)cc1 [9a] | 1.23 ± 1.20 | 8.70 ± 3.21
8 |  |  |  | 59.5 | 64.2 | 62.5 | COc1cc(N2CCN(C)CC2)ccc1NC(=O)c1cc(-c2nc(Nc3ccnn3C)ncc2Cl)cs1 [H1] |  | 
9 | 78.85 ± 2.67 | 23.97 ± 0.90 |  |  |  |  | CN(C)Cc1cccc(Nc2ncc(Cl)c(-c3csc(C(=O)Nc4cccc(N(C)C)c4)c3)n2)c1 [18d] | 85.64 ± 1.02 | 50.45 ± 2.12
10 | 23.21 ± 3.45 | 51.08 ±2.31 | 50.78 ± 0.89 |  |  |  | Cn1nccc1Nc1ncc(Cl)c(-c2csc(C(=O)Nc3ccc(C(F)(F)F)cc3)c2)n1 [6y] | 8.87 ± 1.11 | 9.83 ± 0.93
11 | 36.99 ± 0.32 | 57.85 ± 0.88 | 59.39 ± 3.21 |  |  |  | Cn1nccc1Nc1ncc(Cl)c(-c2csc(C(=O)Nc3cccc(Cl)c3)c2)n1 [6k] | 39.12 ± 1.23 | 23.41 ± 0.48
12 | 32.34 ± 0.89 | 46.65 ± 0.32 | 47.12 ± 9.23 |  |  |  | Cn1nccc1Nc1ncc(Cl)c(-c2csc(C(=O)Nc3cccc(Br)c3)c2)n1 [6l] | 33.90 ± 1.22 | 23.35 ± 2.37
13 | 73.61 ± 3.12 | 72.75 ± 2.14 | 70.32 ± 0.91 |  |  |  | Cc1cc(NC(=O)c2cc(-c3nc(Nc4ccnn4C)ncc3Cl)cs2)ccn1 [6g] | 6.82 ± 2.13 | 20.23 ± 0.32
14 | 23.12 ± 3.21 | 43.22 ± 0.23 | 45.29 ± 1.30 |  |  |  | COc1ccc(NC(=O)c2cc(-c3nc(Nc4c(C)nn(C)c4C)ncc3Cl)cs2)cc1 [9d, 4-(5-chloro-2-((1,3,5-trimethyl-1H-pyrazol-4-yl)amino)pyrimidin-4-yl)-N-(4-methoxyphenyl)thio-phene-2-carboxamide] | 7.54 ± 1.23 | 24.33 ± 0.84
15 | 18.64 ±2.32 | 66.54 ± 2.11 | 67.08 ± 0.98 |  |  |  | Cn1nccc1Nc1ncc(Cl)c(-c2csc(C(=O)Nc3cccc(OC(F)(F)F)c3)c2)n1 [6n] | 43.93 ± 0.21 | 33.21 ± 0.54
16 | 28.02 ± 1.34 | 39.03 ± 2.13 | 40.45 ± 1.23 |  |  |  | CN1CCN(C(=O)c2cc(-c3nc(Nc4ccnn4C)ncc3Cl)cs2)CC1 [6b] | 3.15 ± 1.22 | 25.81 ± 2.43
17 | 77.49 ± 0.89 | 84.67 ± 0.65 | 86.34 ± 0.79 |  |  |  | Cn1nccc1Nc1ncc(Cl)c(-c2csc(C(=O)Nc3cccc(N)c3)c2)n1 [6p] | 33.51 ± 0.32 | 28.42 ± 1.21
18 | 69.90 ± 2.56 | 97.67 ± 0.90 | 95.98 ± 1.02 |  |  |  | CSc1ccc(NC(=O)c2cc(-c3nc(Nc4ccnn4C)ncc3Cl)cs2)cc1 [6ac] | 22.57 ± 1.11 | 18.49 ± 0.23
19 | 45.32 ± 0.09 | 76.45 ± 0.01 | 77.32 ± 2.34 |  |  |  | COc1ccc(NC(=O)c2cc(-c3nc(Nc4ccccc4)ncc3Cl)cs2)cc1 [9e] | 23.33 ± 0.56 | 25.10 ± 1.53
20 | 35.94 ± 1.21 | 89.54 ± 2.31 | 89.31 ± 0.87 |  |  |  | Cn1nccc1Nc1ncc(Cl)c(-c2csc(C(=O)N[C@H]3CC[C@H](O)CC3)c2)n1 [6f] | 11.85 ± 2.31 | 57.68 ± 1.09
21 | 61.02 ± 1.22 | 95.32 ± 0.08 | 93.45 ± 1.80 |  |  |  | CC(C)Oc1ccc(NC(=O)c2cc(-c3nc(Nc4ccnn4C)ncc3Cl)cs2)cc1 [6ae] | 15.96 ± 0.09 | 4.62 ± 0.89
22 | 19.12 ± 2.15 | 14.38 ± 0.24 | 21.57 ± 2.34 |  |  |  | CC(C)N1CCN(C(=O)c2cc(-c3nc(Nc4ccnn4C)ncc3Cl)cs2)CC1 [6c] | 5.71 ± 1.21 | 3.51 ± 0.77
23 | 71.14 ± 0.43 | -1.29 ± 0.02 | 2.13 ± 1.56 |  |  |  | CN(C)Cc1cccc(Nc2ncc(Cl)c(-c3csc(C(=O)Nc4ccncn4)c3)n2)c1 [18i] | 41.35 ± 1.20 | 30.29 ± 0.83
